Data from US20230050588A1, “ANTIOXIDANT OR SKIN STRESS INHIBITOR” (Shiseido Company, Ltd., priority 2020, published 2023).

Key:
Assay type in all cases: cell-based
Set-up in all cases: key: ○ corresponds to genes whose expression is significantly changed; x corresponds to genes whose expression is not changed
AhR = test: Microarray gene expression in keratinocytes UV-irradiated through wavelength conversion substance: AhR; settings: Normal Human Epidermal Keratinocytes; UV 100 mJ/cm^2 through substance solution without direct contact; 24 hours after irradiation; expression of AhR is reduced
Description: (§1) The wavelength conversion substances of (1) and (2) were dissolved in water to prepare solutions at concentrations of 1% and 5%.
(§2) The wavelength conversion substances of (3) and (4) were dispersed in alcohol to prepare 5% and 10% dispersions.
(§3) 1. Normal Human Epidermal Keratinocytes (PromoCell) were used. A cell suspension (1 mL) stored with liquid nitrogen was placed in a hot water bath (37° C.) and thawed until small ice pellets remained, and then diluted with 9 mL of warm KGM medium. 2. The diluted suspension was gently mixed and transferred to a T75 flask, and incubated overnight at 37° C. 3. On the following day, the medium was exchanged with 10 mL of fresh medium. 4. The medium was periodically exchanged (once every 2 to 3 days), while continuing growth of the cells. During this time, a microscope was used to observe the cells and to confirm that the cells had proliferated with the proper form. 5. Once the cells reached approximately 80% confluence, they were subcultured. 6. Subculturing of the cells was carried out by rinsing and aspirating once in 10 mL of warm PBS. 7. 5 mL of warm trypsin was added to the T75 flask to cover the bottom of the flask with the trypsin solution, and the mixture was aspirated after standing for 1 minute at room temperature. 8. The flask was set in an oven at 37° C. for 5 minutes (maximum) for keratinocytes. […]

HMOX1 = test: Microarray gene expression in keratinocytes UV-irradiated through wavelength conversion substance: HMOX1; settings: Normal Human Epidermal Keratinocytes; UV 100 mJ/cm^2 through substance solution without direct contact; 24 hours after irradiation
Description: as §1, §2, §3

AHRR = test: Microarray gene expression in keratinocytes UV-irradiated through wavelength conversion substance: AHRR; settings: Normal Human Epidermal Keratinocytes; UV 100 mJ/cm^2 through substance solution without direct contact; 24 hours after irradiation
Description: as §1, §2, §3

Structure (SMILES): Cc1cc2nc3c(=O)[nH]c(=O)nc-3n(C[C@H](O)[C@H](O)[C@H](O)CO)c2cc1C [Vitamin B2, Riboflavin]
- AhR gene expression change (microarray) (AhR): ○
- HMOX1 gene expression change (microarray) (HMOX1): x
- AHRR gene expression change (microarray) (AHRR): ○
